pIC50: −log10 of the molar value. Like-named read-outs stand apart in the source and are kept apart here. Where only a bound is given, the exact number is not on record here.

Common to all, as to assay type: cell-based
The subject of assay [1] is NCI-H82 (human small cell lung cancer cell). In words: Cell viability assay (Promega CellTiter-Glo), inhibitory effect on NCI-H82. The settings on record: 72 h, 3 days of culture. The method in brief:
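NCI-H82 cells grown in RPMI1640 with 10% FBS were exposed to serially diluted compound for 3 days. Viability was read as intracellular ATP by CellTiter-Glo luminescence, and the IC50 was taken as the concentration giving 50% inhibition.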
On the technique in general: Cellular ATP, detected with luciferase, serves as a proxy for viable cell number.

Assay [2] has as its system SW48 (human colon adenocarcinoma cell). In words: Cell viability assay (Promega CellTiter-Glo), inhibitory effect on SW48. The following applies: 72 h, 3 days of culture. The gist of the method: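 Cells grown in L-15 medium with 10% FBS and treated with serially diluted compounds for 3 days. Viability taken from intracellular ATP by CellTiter-Glo luminescence; IC50 derived.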

In assay [3] the test system is G-401 (human renal carcinoma Wilms cell). The assay is described as follows: Cell viability assay (Promega CellTiter-Glo), inhibitory effect on G-401. The following applies: 72 h, 3 days of culture. The gist of the method:
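Cells grown in McCoy's 5a with 10% FBS were treated with gradient-diluted compounds after passage. Viability was read as intracellular ATP by CellTiter-Glo luminescence after 3 days of culture, and IC50 was determined from the dose series.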

Assay [4] concerns MDA-MB-453 (breast cancer cell). The assay is described as follows: Cell viability assay (Promega CellTiter-Glo), inhibitory effect on MDA-MB-453. The settings on record: Homo sapiens, 72 h, 3 days of culture. The method in brief:
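Cells grown in Leibovitz's L-15 with 10% FBS were given serially diluted compound after passage and cultured 3 days. Viability was read as intracellular ATP by CellTiter-Glo luminescence, and IC50 was derived.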

The subject of assay [5] is CFPAC-1 (human pancreatic cancer cell). In words: Cell viability assay (Promega CellTiter-Glo), inhibitory effect on CFPAC-1. The following applies: 72 h, 3 days of culture. The gist of the method: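 CFPAC-1 human pancreatic cancer cells in IMDM with 10% FBS exposed to serially diluted compounds for 3 days. Viability measured as intracellular ATP by CellTiter-Glo luminescence; IC50 derived.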

In assay [6] the test system is 786-O (clear cell renal cell adenocarcinoma cell). The assay is described as follows: Cell viability assay (Promega CellTiter-Glo), inhibitory effect on 786-O. The following applies: Homo sapiens, 786-0, 72 h, 3 days of culture. The method in brief: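 786-O cells grown in RPMI1640 with 10% FBS and P/S, then exposed to serially diluted compounds after passage for 3 days. Viability read as intracellular ATP by CellTiter-Glo luminescence; IC50 derived.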

The subject of assay [7] is SF126 (human glioblastoma multiforme cell). The assay is described as follows: Cell viability assay (Promega CellTiter-Glo), inhibitory effect on SF126. The method in brief:
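SF126 human glioblastoma cells grown in EMEM with 10% FBS were exposed to gradient-diluted compound for 3 days after passage. Viability was read as intracellular ATP by CellTiter-Glo luminescence, and IC50 taken as 50% inhibiting concentration.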

Assay [8] has as its system GB-1 (human brain glioblastoma cell). In words: Cell viability assay (Promega CellTiter-Glo), inhibitory effect on GB-1. The settings on record: 72 h, 3 days of culture. The gist of the method: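 GB-1 cells were grown in DMEM with 10% FBS and given serially diluted compound after passage. Viability was read after 3 days of culture as intracellular ATP by CellTiter-Glo luminescence, and IC50 was derived.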

The subject of assay [9] is Kelly (brain neuroblastoma cell). In words: Cell viability assay (Promega CellTiter-Glo), inhibitory effect on Kelly. The settings on record: Homo sapiens, 72 h, 3 days of culture, read-out: inhibitory effect on brain cell line Kelly (IC50). The gist of the method:
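Kelly cells were cultured in RPMI1640 with 10% FBS and 2 mM glutamine, then treated with serially diluted compounds for 3 days. Viability was measured as intracellular ATP by CellTiter-Glo luminescence, and IC50 was derived from the dose-response.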

The test system of assay [10] is NB-1 (brain neuroblastoma cell). In words: Cell viability assay (Promega CellTiter-Glo), inhibitory effect on NB-1. The settings on record: Homo sapiens, 72 h, 3 days of culture, read-out: inhibitory effect on brain cell line NB-1 (IC50). The method in brief: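 NB-1 cells grown in L-15 medium with 10% FBS were exposed to serially diluted compounds for 3 days after passage. Viability was read as intracellular ATP by CellTiter-Glo luminescence. IC50 was taken as the concentration giving 50% inhibition.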

The test system of assay [11] is D341 Med (cerebellar medulloblastoma cell). The assay is described as follows: Cell viability assay (Promega CellTiter-Glo), inhibitory effect on D341 Med. The following applies: Homo sapiens, 72 h, 3 days of culture, read-out: inhibitory effect on brain cell line D341 Med (IC50). The gist of the method: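 D341 Med cells grown in EMEM with 20% FBS (+P/S) were treated with serially diluted compounds after passage. Viability after 3 days of culture was read as intracellular ATP by CellTiter-Glo luminescence, and IC50 was derived.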

Assay [12] has as its system Con-NCI-H82 cell (NCI-H82 transfected with empty virus vector). The assay is described as follows: Cell viability assay (Promega CellTiter-Glo), inhibitory effect on Con-NCI-H82 cell. The following applies: Homo sapiens; NCI-H82 transfected with empty virus vector (control); CellTiter-Glo; read-out: inhibitory effect on Con-NCI-H82 (IC50). The method in brief:
(§1)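 NCI-H82 lines: NNMT overexpressed via viral vector, DNMT1 knocked down by viral shRNA, control given empty vector; expression confirmed by Western blot. Compound effect on viability read by CellTiter-Glo.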

The subject of assay [13] is ov-NNMT NCI-H82 cell (NNMT protein-overexpressing NCI-H82). The assay is described as follows: Cell viability assay (Promega CellTiter-Glo), inhibitory effect on ov-NNMT NCI-H82 cell. The settings on record: Homo sapiens. The gist of the method: as §1
Assay [14] deals with sh-DNMT1 NCI-H82 cell (DNMT1 knocked down NCI-H82). The assay is described as follows: Cell viability assay (Promega CellTiter-Glo), inhibitory effect on sh-DNMT1 NCI-H82 cell. The following applies: Homo sapiens, NCI-H82 with DNMT1 knocked down by shRNA. The method in brief: as §1
[15] abbreviates: 72 h, SF-126, 3 days of culture, Table 3, read-out: inhibitory effect on SF-126 (IC50).
The mark [16] stands for this setting: SF-126, 72 h, SF126, 3 days of culture, Table 4, read-out: inhibitory effect on brain cell line SF126 (IC50).
Where [17] appears, read: Table 3, read-out: inhibitory effect on GB-1 (IC50).
Where [18] appears, read: Table 4, read-out: inhibitory effect on brain cell line GB-1 (IC50).

In the case of `COc1ccc2c(Cc3ccc(C(C)C)cc3)c3[n+](cc2c1OC)CCc1cc2c(cc1-3)OCO2` [compound AB31789], the negative-log IC50 (pIC50) (in general, −log10 of the IC50, conventionally taken in molar units) was 6.52 in [1]; 6.25 in assay [2]; 6.59 in [3]; 6.51 in assay [4]; 5.35 in assay [5]; 5.53 in assay [6]. For the same compound, the pIC50 is 5.42 in assay [7] (setting [15]); 5.42 in assay [7] (setting [16]); 5.49 in assay [8] (setting [17]); 5.49 in assay [8] (setting [18]); 6.34 in [9]; 6.68 in assay [10]. Besides, the pIC50 was 6.29 in assay [11], 6.52 in [12], 6.07 in [13] and 5.98 in assay [14].
Regarding `COc1ccc2cc3[n+](cc2c1OCC(=O)/C=C/c1ccc(C)cc1)CCc1cc2c(cc1-3)OCO2` [compound AB31790], the negative logarithm of the IC50 (pIC50) was 6.37 in assay [1]; 6.38 in assay [2]; 6.09 in assay [3]; 6.04 in assay [4]; 5.11 in assay [5]; 5.32 in [6]. Besides, the pIC50 in assay [7] (setting [15]) is 5.49; in assay [7] (setting [16]) it was 5.49; in [8] (setting [17]), 5.43; in [8] (setting [18]), 5.43; in assay [9] it was 6.57; in assay [10], 6.64. Also, the pIC50 was 6.59 in assay [11], 6.37 in [12], 5.82 in [13] and 5.86 in [14].
As for `COc1ccc2c(Cc3ccc(C(F)(F)F)cc3)c3[n+](cc2c1OC)CCc1cc2c(cc1-3)OCO2` [compound AB31805], the pIC50 in assay [1] was 5.68; in [2] it was 5.87; in assay [3], 5.74; in [4], 5.39; in assay [5] it was under 4.30; in assay [6], 4.59. Moreover, the pIC50 was under 4.30 in assay [7] (setting [15]); under 4.30 in [7] (setting [16]); under 4.30 in assay [8] (setting [17]); under 4.30 in assay [8] (setting [18]); 5.32 in [9]; 5.99 in assay [10]. Besides, the pIC50 in [11] is 5.32; in [12] it was 5.68; in [13], 5.32; in [14], 5.22.
As for `COc1ccc2cc3[n+](cc2c1OCCCCCCNC(=O)OC(C)(C)C)CCc1cc2c(cc1-3)OCO2` [compound AB31808], the pIC50 in [1] was 6.48; in [2], 6.41; in [3], 6.32; in assay [4], 6.55; in assay [5], 5.14; in assay [6], 5.41. The pIC50 is 5.34 in [7] (setting [15]); 5.34 in assay [7] (setting [16]); 5.25 in assay [8] (setting [17]); 5.25 in [8] (setting [18]); 5.98 in [9]; 7.22 in [10]. The pIC50 in assay [11] was 6.37; in assay [12], 6.48; in assay [13] it was 6.07; in [14], 5.98.
As for `COc1ccc(CCCc2c3[n+](cc4c(OC)c(OC)ccc24)CCc2cc4c(cc2-3)OCO4)cc1` [compound AB31809], the pIC50 is 6.36 in [1]; 6.25 in [2]; 6.28 in assay [3]; 6.06 in assay [4]; 4.81 in assay [5]; 5.10 in assay [6]. For the same compound, the pIC50 in assay [7] (setting [15]) was 5.00; in [7] (setting [16]), 5.00; in assay [8] (setting [17]), 4.93; in [8] (setting [18]), 4.93; in [9] it was 6.00; in [10] it was 6.80. The pIC50 was 5.72 in [11], 6.36 in assay [12], 5.86 in [13] and 5.73 in assay [14].

Source of the values: patent US20250195502A1, “APPLICATION OF TETRACYCLIC COMPOUND IN TREATMENT OF TUMORS” (SHANGHAI SHIJIANG BIOTECHNOLOGY CO., LTD, priority 2022, published 2025).
